This is an account of results in patent US8686039B2, “Aqueous nanoemulsion composition containing conjugated linoleic acid” (Hwail Pharmaceutical Co., Ltd., priority 2009, dated 2014).

In data set [1] the test system is 3T3-L1 pre-adipocytes. Description: Adipogenesis inhibitory effect (Oil red O staining). Type of data set: cell-based. Conditions: Mus musculus, 10 μg/mL, treated with MDI medium 48 hours, 8th day after differentiation, FIG. 6, read-out: Content of neutral lipids decreased compared with the control group (adipogenesis inhibitory effect). The method, then: 3T3-L1 pre-adipocytes were cultured in Dulbecco's Modified Eagle's Medium (DMEM) containing 10% fetal bovine serum, 100 unit/mL penicillin and 10 μg/mL streptomycin at 37° C., 5% CO2 incubator. When 70 to 80% of cells were confluent, cells were pre-differentiated with DMEM containing dexamethazone, pioglitazone, IBMX (3-isobutyl-1-methylxanthin), insulin and FBS which are differentiation inducers, and then were differentiated with DMEM containing insulin, pioglitazone and FBS. After differentiation, lipids were matured with growth medium containing 10% FBS and insulin. Samples were dissolved in DMSO and treated in 10 μg/mL of the final concentration. 1×10^5 cells were dispensed into each well of 6-well plate. When 70% of cells were confluent, cells were treated with MDI medium (differentiation medium) and each sample at the same time, then incubated for 48 hours. On the 8th day after differentiation, the content of neutral lipids was measured with Oil red O staining. The results are represented in FIG. 6.

Data set [2] relates to 3T3-L1 pre-adipocytes. Description: Lipolysis effect (Oil red O staining, neutral lipids). Type of data set: cell-based. Conditions: 10 μg/mL, 8th day after differentiation, vs control group, FIGS. 4 and 5. The protocol:
(§1) 3T3-L1 pre-adipocytes were cultured in Dulbecco's Modified Eagle's Medium (DMEM) containing 10% fetal bovine serum, 100 unit/mL penicillin and 10 μg/mL streptomycin at 37° C., 5% CO2 incubator. When 70 to 80% of cells were confluent, cells were pre-differentiated with DMEM containing dexamethazone, pioglitazone, IBMX (3-isobutyl-1-methylxanthin), insulin and FBS which are differentiation inducers, and then were differentiated with DMEM containing insulin, pioglitazone and FBS. After differentiation, lipids were matured with growth medium containing 10% FBS and insulin. Samples were dissolved in DMSO and treated in 10 μg/mL of the final concentration.
1×10^5 cells were dispensed into each well of 6-well plate and differentiated. On the 8th day after differentiation, media were removed, and cells were washed twice with ice-cold PBS. Cells were fixed with 10% formalin at room temperature for 1 hour, stained with 0.2 Oil red O (in isoprophanol) for 30 minutes, and then washed with distilled water. Isopropanol was added thereto to dissolve oil droplets, and then the content of neutral lipids was measured as absorbance at 490 nm. The results are represented in FIGS. 4 and 5.

Data set [3] relates to 3T3-L1 pre-adipocytes. Type of data set: cell-based. The conditions noted are these: mouse, 24 h, 10 μg/mL. The method, then:
as §1
1×10^4 pre-adipocytes were dispensed into each well of 96-well plate, and each sample was treated. Then cells were incubated at 37° C., 5% CO2 incubator for 24 hours. After 24 hours, MTT (in phosphate buffered saline, final concentration was […]) was treated, and then cells were incubated for 4 hours. Formed formazan crystal was dissolved with DMSO:ethanol (1:1) and absorbance at 540 nm was measured by a microplate reader (SUNRISE, TECAN, Austria). Cell viability was determined by the ratio of absorbance value of sample treating group to absorbance value of control group, and the results are represented in FIG. 3. […] Thus, there is no statistically significant difference from that of the control group.

Data set [4] concerns 3T3-L1 pre-adipocytes. Description: Glycerol quantification (free glycerol reagent). Type of data set: cell-based. Conditions: 10 μg/mL, medium after 24 hours treatment, FIG. 7. The protocol:
as §1
Glycerol was quantified with an enzyme reaction method by using free glycerol reagent (Sigma, USA). 10 μl of medium, collected after treatment of cells with sample for 24 hours was added to 0.8 mL of Free glycerol reagent which was pre-warmed at 37° C., and then the reaction of the mixture was carried out in 37° C. water bath for 5 minutes. For quantification of glycerol, standard glycerol (25 μg/10 μl) was reacted in the same manner as above, and then absorbance at 540 nm was measured. The content of glycerol was calculated with the following formula.

Data set [5] concerns leptin secreted from adipocytes. The experiment in a line: Leptin secretion (ELISA). Format: cell-based, mouse. The conditions noted are these: 10 μg/mL, FIG. 8. The protocol:
3T3-L1 pre-adipocytes were cultured in Dulbecco's Modified Eagle's Medium (DMEM) containing 10% fetal bovine serum, 100 unit/mL penicillin and 10 μg/mL streptomycin at 37° C., 5% CO2 incubator. When 70 to 80% of cells were confluent, cells were pre-differentiated with DMEM containing dexamethazone, pioglitazone, IBMX (3-isobutyl-1-methylxanthin), insulin and FBS which are differentiation inducers, and then were differentiated with DMEM containing insulin, pioglitazone and FBS. After differentiation, lipids were matured with growth medium containing 10% FBS and insulin. Samples were dissolved in DMSO and treated in 10 μg/mL of the final concentration. An experiment was carried out to check whether the secretion amount of leptin, which is known as an appetite-related hormone, is regulated. The amount of leptin secreted from adipocytes was measured by enzyme-linked immunosorbent assay (ELISA) on media collected after treatment of adipocytes with sample. 100 μl of rabbit anti-mouse leptin IgG was aliquoted into an ELISA plate. […] Color development was elicited by the use of alkaline phosphatase conjugated substrate kit, and then absorbance at 490 nm was measured by an ELISA reader (SUNRISE, TECAN, Austria). […]

Data set [6] deals with male Sprague-Dawley rats. Description: Body weight, diet intake and FER in high fat diet obesity-induced rats. Format: in vivo. Conditions: HF diet + 2% test material. The text has this:
(§2) 28 male Sprague-Dawley rats (5 weeks, 145±5 g) were purchased from the Orient Company (Korea) as experimental animals. Rats were adapted with a lab-chow diet in pellet form for a week. Other obesity-induction groups except the normal group (NC) were fed high fat diet ad libitum for 5 weeks to induce obesity, and then rats were divided into four groups (7 rats per group) including the normal group and bred for 5 weeks as represented in FIG. 13.
(§3) AIN-76 diet (Teklad, USA) was used as a base of the experimental diet. Test materials were added at the level of 2% of high fat diet. In the CLA group and N-CLA group, 2% of CLA and N-CLA were added, respectively, while reducing corn oil. Experimental diet and water were supplied ad libitum. During the breeding period, the experimental diets were kept in a 4° C. refrigerator. Each of the animals was placed in an empty cage under a specific environmental condition, at 25±2° C. with a relative humidity of 60±5%, a lighting cycle of 12 hr light/12 hr dark. Body weight and the amount of diet intake were measured at constant time at 2-day intervals during the overall experimental period. Feed efficiency ratio (FER) was calculated by dividing the amount of body weight gain during the experimental period with the amount of diet intake during the same period, and the results are represented in Table 16.

The test system of data set [7] is male Sprague-Dawley rats. Description: Liver tissue lipid content in rats fed experimental diet. The conditions noted are these: HF diet + 2% test material, 5 weeks, vs HFD group, FIG. 12. Format: in vivo.
Description: as §2
as §3, with “During the breeding period, the experimental diets were kept in a 4° C. refrigerator. Each of the animals was placed in an empty cage under a specific environmental condition, at 25±2° C. with a relative humidity of 60±5%, a lighting cycle of 12 hr light/12 hr dark.” left out
(§4) After breeding, rats were fasted for 12 hours and then primarily anesthetized with ether. […] Liver was isolated, collected, rapidly frozen in liquid nitrogen and stored at −70° C. until sample analysis for measurement of enzyme activity and lipid quantification. […]

The test system of data set [8] is male Sprague-Dawley rats. The experiment in a line: Serum cholesterol and neutral lipid in rats fed experimental diet. Format: in vivo. Conditions: HF diet + 2% test material, 5 weeks, FIG. 11.
Description: as §2, §3, §4
Quantification of total serum cholesterol was performed by using a test solution (Asanpharm Co., Korea) utilizing Allain et al. (1974)'s enzyme method. […] Thus, to quantify both CE and free cholesterol, CE was converted into fatty acid and free cholesterol by cholesterol esterase. […] H2O2 was mixed with peroxidase, phenol and 4-amino-antipyrine to emit red color, and then absorbance at 500 nm was measured. […]
The content of HDL-cholesterol was measured with kit reagent (Asanpharm Co., Korea). […]

In data set [9] the test system is male Sprague-Dawley rats. The experiment in a line: Organ and white adipose tissue weight in rats fed experimental diet. Format: in vivo. The conditions noted are these: HF diet + 2% test material, 5 weeks.
Description: as §2, §3
After breeding, rats were fasted for 12 hours and then primarily anesthetized with ether. […] Collected blood was centrifuged at 3,000×g, 4° C. for 15 minutes to obtain serum, and then obtained serum was stored at −70° C. until sample analysis. Organ tissues (liver, heart, kidney, epididymal white adipose tissue and perirenal white adipose tissue) of the experimental animals were washed with PBS (phosphate buffered saline) several times, and then weighed after removing surface moisture. Liver was isolated, collected, rapidly frozen in liquid nitrogen and stored at −70° C. until sample analysis for measurement of enzyme activity and lipid quantification. The results of measuring the weight of epididymal white adipose tissue and perirenal white adipose tissue per unit body weight are represented in FIG. 10.

As to `CCCCCCCCCCC[C@@H](C[C@@H]1OC(=O)[C@H]1CCCCCC)OC(=O)[C@H](CC(C)C)NC=O` [Orlistat], in the data set on 3T3-L1 pre-adipocytes [1], the inhibition at 10 µg/mL worked out at 12.5%. Moreover, the “Content of neutral lipids (lipolysis effect)” value with 3T3-L1 pre-adipocytes [2] is “tendency of decreasing neutral lipids”. Further, the Cell viability with 3T3-L1 pre-adipocytes [3] was 103%. Further, in the data set on 3T3-L1 pre-adipocytes [4], the “Content of glycerol (secretion of glycerol, lipolysis)” value was 1.57 µg/mL. In addition, in data set [5], the “Amount of leptin secretion decreased compared with the control group” value stood at 11.6%.
Turning to conjugated linoleic acid [CLA], the “Content of neutral lipids (lipolysis effect)” value in the data set on 3T3-L1 pre-adipocytes [2] is given as “tendency of decreasing neutral lipids”. Further, in the data set with male Sprague-Dawley rats [6] (5th week, FIG. 9), the “Body weight in the 5th week” value was “not different from that of the HFD group with statistical significance”. Also, in the data set on male Sprague-Dawley rats [6] (5 weeks), the “Body Weight Gain” value turned out to be 2.89 ± 0.55 g/day, the “FER (food efficiency ratio) = body weight gain/food intake” value amounted to 0.11 ± 0.02 and the “Food Intake” value worked out at 28.18 ± 0.21 g/day. In addition, the “Body weight change during the experiment period” value in the data set on male Sprague-Dawley rats [6] (weeks 2 onward, vs HFD group, FIG. 9) was “lower than in the HFD group from the 2nd week to the 4th week”. Further, in the data set with male Sprague-Dawley rats [7], the “Content of neutral lipids in liver tissue” value was “statistically significant decrease compared with the HFD group” and the “Content of total cholesterol in liver tissue” value is recorded as “statistically significant decrease compared with the HFD group”. Moreover, the “Content of serum neutral lipid (triglyceride, TG)” value with male Sprague-Dawley rats [8] is reported as “lower than HFD group with statistical significance”. Also, the “Serum total cholesterol (TC)” value in the data set with male Sprague-Dawley rats [8] (vs HFD group) is “decreased compared with the HFD group with statistical significance”. Further, in the data set with male Sprague-Dawley rats [8] (vs HFD group, calculated by Friedewald method), the “Serum low density lipid (LDL)” value is on record as “decreased compared with the HFD group with statistical significance”. In addition, the “Content of glycerol (secretion of glycerol, lipolysis)” value in the data set with 3T3-L1 pre-adipocytes [4] is listed as “tendency of increasing the secretion of glycerol”. Further, in the data set on male Sprague-Dawley rats [9], the “Organ Weight: Heart” value turned out to be 2.43 ± 0.17 mg/g B.W, the “Organ Weight: Kidney” value is listed as 5.35 ± 0.24 mg/g B.W and the “Organ Weight: Liver” value was 44.69 ± 2.57 mg/g B.W. Moreover, the “Weight of epididymal white adipose tissue and perirenal white adipose tissue per unit body weight” value with male Sprague-Dawley rats [9] (vs HFD group, FIG. 10) is “slightly lighter than in the HFD group without statistical significance”. The “Amount of leptin secretion decreased compared with the control group” value in data set [5] came out at 8.3%.
